Results: patent publication US10160716B2, “Compounds and methods of use thereof for treating tumors” (Georgetown University, priority 2012, dated 2018)

Assays:
MCF-7 cells = test: E2 stimulated proliferation of MCF-7 cells (cell counts); format: cell-based, human
Text: Briefly, cells were inoculated into 12-well dishes at 1×10^4 cells per well on day 0 in 5% charcoal-stripped serum (CSS). […] Triplicate wells were counted on days 1-4 to determine the effect of 103(f) on cell growth.

ER-α = target: T1, ER-α (Homo sapiens, UniProt P03372); test: ERE-TK-Luc reporter assay of E2-stimulated ER-α transcriptional activity in MCF-7 cells; format: cell-based; conditions: for IC80: MCF7, read-out: IC80 (concentration required for inhibition of ER-α activity by 80%); for IC50: read-out: IC50 (concentration required for inhibition of ER-α activity by 50%)
T1 construct: endogenous in cells; host or cells: MCF-7
T1 sequence (P03372 1-595): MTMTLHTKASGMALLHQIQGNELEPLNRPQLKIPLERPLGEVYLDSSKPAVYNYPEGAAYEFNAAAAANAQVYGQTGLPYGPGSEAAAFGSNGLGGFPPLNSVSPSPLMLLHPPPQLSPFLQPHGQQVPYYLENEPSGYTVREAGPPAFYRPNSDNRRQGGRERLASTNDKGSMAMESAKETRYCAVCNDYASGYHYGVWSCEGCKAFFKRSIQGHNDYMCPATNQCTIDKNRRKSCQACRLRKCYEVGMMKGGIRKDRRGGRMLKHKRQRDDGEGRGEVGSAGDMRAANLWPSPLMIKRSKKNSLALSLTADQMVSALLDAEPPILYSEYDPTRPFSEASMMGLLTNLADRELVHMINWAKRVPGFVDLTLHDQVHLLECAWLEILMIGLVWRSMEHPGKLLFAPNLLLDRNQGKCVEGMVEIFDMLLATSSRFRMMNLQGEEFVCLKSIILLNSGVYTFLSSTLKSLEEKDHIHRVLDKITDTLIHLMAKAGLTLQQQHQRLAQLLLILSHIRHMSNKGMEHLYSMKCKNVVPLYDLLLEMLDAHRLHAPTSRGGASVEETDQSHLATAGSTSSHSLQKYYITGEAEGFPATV
Method: Briefly, MCF7 or T47D cells are transfected overnight with an ERE-TK-Luc reporter construct. An ERE-TK-Luc construct contains an estrogen response element (ERE) upstream of a minimal thymidine kinase (TK) promoter that drives the expression of the luciferase (Luc) reporter gene. After transfection, the cells are subsequently washed and allowed to recover for several hours. […] The cells are subsequently harvested for luciferase reporter assays.
Three compounds were tested for their ability to inhibit ER-α activity. […] Initially, each compound was tested at doses of 1 μM and 50 μM.

MCF-7 = conditions: MCF-7, ER-α +; cited from earlier work
LCC1 = conditions: LCC1, ER-α +; cited from earlier work
LCC9 = conditions: LCC9, ER-α +; cited from earlier work
LCC2 = conditions: LCC2, ER-α +; cited from earlier work

CC(C)=CC1C(COC(=O)c2cc3c(cc2Cl)OCO3)C1(C)C (stereo not drawn) [Compound 103(f)]
effect on E2-stimulated cell growth (MCF-7 cells; 5 μM or 20 μM in the presence of 10 nM E2, P<0.01): blocked most of the E2-stimulated cell growth | effect on cell growth, compound alone (MCF-7 cells; 5 μM or 20 μM, without E2, compared with DMSO, days 1-4): little or no effect on cell growth | IC80 (ER-α): 5 µM | IC50 (ER-α): 3 µM

O=C(O)CCCc1ccc2ccccc2c1 [Compound 201]
IC80 (ER-α): 50 µM | IC50 (ER-α): 4 µM

Nc1nc(Cc2ccccc2)nc(Cc2ccccc2)c1-c1ccccc1 [Compound 301]
IC80 (ER-α): 40 µM | IC50 (ER-α): 12 µM

C[C@]12CC[C@@H]3c4ccc(O)cc4CC[C@H]3[C@@H]1CC[C@@H]2O [Compound E2, 17β-estradiol]
Response to Estradiol (E2) (MCF-7): E2-responsive; E2-dependent growth | cell density by day 4 (MCF-7 cells; DMSO+E2 (10 nM), seeded 1×10^4 cells per well, 2% CSS): 9×10^4 cells per well | Response to Estradiol (E2) (LCC1): Partially E2-depenedent growth | Response to Estradiol (E2) (LCC9): E2-insensitive growth; some E2-responsive | Response to Estradiol (E2) (LCC2): E2-dependent growth

C[C@]12CC[C@@H]3c4ccc(O)cc4C[C@@H](CCCCCCCCC[S+]([O-])CCCC(F)(F)C(F)(F)F)[C@H]3[C@@H]1CC[C@@H]2O (stereo partly drawn) [Fulvestrant]
Response to Fulvestrant (MCF-7): Sensitive | Response to Fulvestrant (LCC1): Sensitive | Response to Fulvestrant (LCC9): Resistant | Response to Fulvestrant (LCC2): Sensitive

CC/C(=C(\c1ccccc1)c1ccc(OCCN(C)C)cc1)c1ccccc1 [Tamoxifen]
Response to Tamoxifen (MCF-7): Sensitive | Response to Tamoxifen (LCC1): Sensitive | Response to Tamoxifen (LCC9): Resistant | Response to Tamoxifen (LCC2): Resistant
